Laboratory results from patent US20220204439A1, “LIPIDS AND LIPID NANOPARTICLE FORMULATIONS FOR DELIVERY OF NUCLEIC ACIDS” (Acuitas Therapeutics, Inc., priority 2015, published 2022).

Tested on: luciferase expression in the liver
Assay: In vivo luciferase mRNA expression in mouse liver with lipid nanoparticle formulations
Parameters: species or system C57BL/6 mice
Details: 0.3 mg mRNA/kg, tail vein injection, liver 4 hours after administration; LNP 50% cationic lipid/10% DSPC/38.5% cholesterol/1.5% PEG-DMA; FLuc mRNA
Method: Cationic lipid (MC3), DSPC, cholesterol and PEG-lipid were solubilized in ethanol at a molar ratio of 50:10:38.5:1.5. Lipid nanoparticles (LNP) were prepared at a total lipid to mRNA weight ratio of approximately 10:1 to 30:1. Briefly, the mRNA was diluted to 0.2 mg/mL in 10 to 50 mM citrate buffer, pH 4. Syringe pumps were used to mix the ethanolic lipid solution with the mRNA aqueous solution at a ratio of about 1:5 to 1:3 (vol/vol) with total flow rates above 15 ml/min. The ethanol was then removed and the external buffer replaced with PBS by dialysis. Finally, the lipid nanoparticles were filtered through a 0.2 μm pore sterile filter. Lipid nanoparticle particle size was 70-90 nm diameter as determined by quasi-elastic light scattering using a Nicomp 370 submicron particle sizer (Santa Barbara, Calif.).
Studies were performed in 6-8 week old female C57BL/6 mice (Charles River) according to guidelines established by an institutional animal care committee (ACC) and the Canadian Council on Animal Care (CCAC). Varying doses of mRNA-lipid nanoparticle were systemically administered by tail vein injection and animals euthanized at specific time points (1, 2, 4, 8 and 24 hrs) post-administration. Liver and spleen were collected in pre-weighted tubes, weights determined, immediately snap frozen in liquid nitrogen and stored at −80° C. until processing for analysis.
For liver, approximately 50 mg was dissected for analyses in a 2 mL FastPrep tubes (MP Biomedicals, Solon Ohio). ¼″ ceramic sphere (MP Biomedicals) was added to each tube and 500 μL of Glo Lysis Buffer—GLB (Promega, Madison Wis.) equilibrated to room temperature was added to liver tissue. Liver tissues were homogenized with the FastPrep24 instrument (MP Biomedicals) at 2×6.0 m/s for 15 seconds. Homogenate was incubated at room temperature for 5 minutes prior to a 1:4 dilution in GLB and assessed using SteadyGlo Luciferase assay system (Promega). Specifically, 50 μL of diluted tissue homogenate was reacted with 50 μL of SteadyGlo substrate, shaken for 10 seconds followed by 5 minute incubation and then quantitated using a CentroXS^3 LB 960 luminometer (Berthold Technologies, Germany). The amount of protein assayed was determined by using the BCA protein assay kit (Pierce, Rockford Ill.). Relative luminescence units (RLU) were then normalized to total ug protein assayed. To convert RLU to ng luciferase a standard curve was generated with QuantiLum Recombinant Luciferase (Promega). Based in the data provided in FIG. 1, the four-hour time point was chosen for efficacy evaluation of the lipid formulations (see Example 29).
The FLuc mRNA (L-6107) from Trilink Biotechnologies will express a luciferase protein, originally isolated from the firefly, Photinus pyralis. FLuc is commonly used in mammalian cell culture to measure both gene expression and cell viability. It emits bioluminescence in the presence of the substrate, luciferin. This capped and polyadenylated mRNA is fully substituted with 5-methylcytidine and pseudouridine.
The cationic lipids shown in Table 2 have previously been tested with nucleic acids. For comparative purposes, these lipids were also used to formulate lipid nanoparticles containing the FLuc mRNA (L-6107) using an in line mixing method, as described in example 28 and in PCT/US10/22614, which is hereby incorporated by reference in its entirety. […] Relative activity was determined by measuring luciferase expression in the liver 4 hours following administration via tail vein injection as described in example 28. The activity was compared at a dose of 0.3 and 1.0 mg mRNA/kg and expressed as ng luciferase/g liver measured 4 hours after administration, as described in Example 28. […]

| SMILES | Liver Luc @ 0.3 mg/kg (ng luc/g liver) |
| --- | --- |
| CCCCC/C=C\C/C=C\CCCCCCCCC(CCCCCCCC/C=C\C/C=C\CCCCC)N(C)CCN(C)C [B, reference compound] | 95 ± 41 |
| CCCCC/C=C\C/C=C\CCCCCCCCC(CCCCCCCC/C=C\C/C=C\CCCCC)N(CC)CCCN(C)C [C, reference compound] | 24 ± 4 |
| CCCCC/C=C\C/C=C\CCCCCCCCC(CCCCCCCC/C=C\C/C=C\CCCCC)N(CCCCCCCCC)CCCN(C)C [Compound 1] | 54 ± 8 |
| CCCCC/C=C\C/C=C\CCCCCCCCC(CCCCCCCC/C=C\C/C=C\CCCCC)N(CCCN(C)C)C(=O)CCCCCCCC [Compound 5] | 603 ± 167 |
| CCCCC/C=C\C/C=C\CCCCCCCCC(CCCCCCCC/C=C\C/C=C\CCCCC)N(CCCN(C)C)C(=O)CCCCCCC/C=C\C/C=C\CCCCC [Compound 6] | 19 ± 4 |
| CCCCC/C=C\C/C=C\CCCCCCCCC(CCCCCCCC/C=C\C/C=C\CCCCC)N(CCCN(C)C)C(=O)C(CC)CCCCC (stereo not drawn) [Compound 7] | 833 ± 401 |
| CCCCC/C=C\C/C=C\CCCCCCCCC(CCCCCCCC/C=C\C/C=C\CCCCC)N(CCCN(C)C)C(=O)C(CCCCCC)CCCCCCCC (stereo not drawn) [Compound 8] | 105 ± 98 |
| CCCCCCCCC(=O)N(CCCN(C)C)C(CCCCCCCCC(=O)OCC(CCCC)CCCCCC)CCCCCCCCC(=O)OCC(CCCC)CCCCCC (stereo not drawn) [Compound 9] | 2381 ± 1162 |
| CCCCCCCC(=O)N(CCCN(C)C)C(CCCCCCCCC(=O)OC(CCCCCC)CCCCCC)CCCCCCCCC(=O)OC(CCCCCC)CCCCCC [Compound 10] | 2379 ± 93 |
| CCCCCCCCC(=O)N(CCCN(C)C)C(CCCCCCCCC(=O)OC(CCCCCC)CCCCCC)CCCCCCCCC(=O)OC(CCCCCC)CCCCCC [Compound 11] | 2273 ± 294 |
| CCCCCCCCC(CCCCCC)COC(=O)CCCCCCCCC(CCCCCCCCC(=O)OCC(CCCCCC)CCCCCCCC)N(CCCN(C)C)C(=O)CCCCCCC (stereo not drawn) [Compound 12] | 3336 ± 1394 |
| CCCCCCCCC(=O)N(CCCN(C)C)C(CCCCCCCCC(=O)OCC(CCCCCC)CCCCCCCC)CCCCCCCCC(=O)OCC(CCCCCC)CCCCCCCC (stereo not drawn) [Compound 13] | 1537 ± 777 |

Same assay, conditions: 1.0 mg mRNA/kg, tail vein injection, liver 4 hours after administration; LNP 50% cationic lipid/10% DSPC/38.5% cholesterol/1.5% PEG-DMA; FLuc mRNA

| SMILES | Liver Luc @ 1.0 mg/kg (ng luc/g liver) |
| --- | --- |
| CCCCC/C=C\C/C=C\CCCCCCCCC(CCCCCCCC/C=C\C/C=C\CCCCC)N(C)CCN(C)C [B, reference compound] | 1131 ± 384 |
| CCCCC/C=C\C/C=C\CCCCCCCCC(CCCCCCCC/C=C\C/C=C\CCCCC)N(CC)CCCN(C)C [C, reference compound] | 77 ± 19 |
| CCCCC/C=C\C/C=C\CCCCCCCCC(CCCCCCCC/C=C\C/C=C\CCCCC)N(CCCCCCCCC)CCCN(C)C [Compound 1] | 226 ± 20 |
| CCCCC/C=C\C/C=C\CCCCCCCCC(CCCCCCCC/C=C\C/C=C\CCCCC)N(CCCN(C)C)C(=O)CCCCCCCC [Compound 5] | 3640 ± 601 |
| CCCCC/C=C\C/C=C\CCCCCCCCC(CCCCCCCC/C=C\C/C=C\CCCCC)N(CCCN(C)C)C(=O)CCCCCCC/C=C\C/C=C\CCCCC [Compound 6] | 211 ± 119 |
| CCCCC/C=C\C/C=C\CCCCCCCCC(CCCCCCCC/C=C\C/C=C\CCCCC)N(CCCN(C)C)C(=O)C(CC)CCCCC (stereo not drawn) [Compound 7] | 8859 ± 780 |
| CCCCC/C=C\C/C=C\CCCCCCCCC(CCCCCCCC/C=C\C/C=C\CCCCC)N(CCCN(C)C)C(=O)C(CCCCCC)CCCCCCCC (stereo not drawn) [Compound 8] | 1238 ± 153 |
| CCCCCCCCC(=O)N(CCCN(C)C)C(CCCCCCCCC(=O)OCC(CCCC)CCCCCC)CCCCCCCCC(=O)OCC(CCCC)CCCCCC (stereo not drawn) [Compound 9] | 17157 ± 2470 |
| CCCCCCCC(=O)N(CCCN(C)C)C(CCCCCCCCC(=O)OC(CCCCCC)CCCCCC)CCCCCCCCC(=O)OC(CCCCCC)CCCCCC [Compound 10] | 26181 ± 2900 |
| CCCCCCCCC(=O)N(CCCN(C)C)C(CCCCCCCCC(=O)OC(CCCCCC)CCCCCC)CCCCCCCCC(=O)OC(CCCCCC)CCCCCC [Compound 11] | 16502 ± 4301 |
| CCCCCCCCC(CCCCCC)COC(=O)CCCCCCCCC(CCCCCCCCC(=O)OCC(CCCCCC)CCCCCCCC)N(CCCN(C)C)C(=O)CCCCCCC (stereo not drawn) [Compound 12] | 13577 ± 1948 |
| CCCCCCCCC(=O)N(CCCN(C)C)C(CCCCCCCCC(=O)OCC(CCCCCC)CCCCCCCC)CCCCCCCCC(=O)OCC(CCCCCC)CCCCCCCC (stereo not drawn) [Compound 13] | 10907 ± 2032 |

Tested on: not listed separately
Assay: pKa of formulated cationic lipids in lipid nanoparticles (TNS fluorescence assay)
Format: physicochemical
Details: probe 2-(p-toluidino)-6-napthalene sulfonic acid (TNS), 1 µM final; formulated in LNP cationic lipid/DSPC/cholesterol/PEG-lipid 50/10/38.5/1.5 mol %; pH of half-maximal TNS fluorescence
Method: As described elsewhere, the pKa of formulated cationic lipids is correlated with the effectiveness of LNPs for delivery of nucleic acids (see Jayaraman et al, Angewandte Chemie, International Edition (2012), 51(34), 8529-8533; Semple et al, Nature Biotechnology 28, 172-176 (2010)). The preferred range of pKa is ˜5 to ˜7. […] Lipid nanoparticles comprising of cationic lipid/DSPC/cholesterol/PEG-lipid (50/10/38.5/1.5 mol %) in PBS at a concentration of 0.4 mM total lipid are prepared using the in-line process as described in Example 28. TNS was prepared as a 100 μM stock solution in distilled water. Vesicles were diluted to 24 μM lipid in 2 mL of buffered solutions containing, 10 mM HEPES, 10 mM MES, 10 mM ammonium acetate, 130 mM NaCl, where the pH ranged from 2.5 to 11. An aliquot of the TNS solution was added to give a final concentration of 1 μM and following vortex mixing fluorescence intensity was measured at room temperature in a SLM Aminco Series 2 Luminescence Spectrophotometer using excitation and emission wavelengths of 321 nm and 445 nm. A sigmoidal best fit analysis was applied to the fluorescence data and the pKa was measured as the pH giving rise to half-maximal fluorescence intensity (see FIG. 2).

| pKa | SMILES |
| --- | --- |
| 6.17 | CCCCC/C=C\C/C=C\CCCCCCCCC(CCCCCCCC/C=C\C/C=C\CCCCC)N(C)CCN(C)C [B, reference compound] |
| 6.36 | CCCCC/C=C\C/C=C\CCCCCCCCC(CCCCCCCC/C=C\C/C=C\CCCCC)N(CC)CCCN(C)C [C, reference compound] |
| 5.64 | CCCCC/C=C\C/C=C\CCCCCCCCC(CCCCCCCC/C=C\C/C=C\CCCCC)N(CCCCCCCCC)CCCN(C)C [Compound 1] |
| 6.27 | CCCCC/C=C\C/C=C\CCCCCCCCC(CCCCCCCC/C=C\C/C=C\CCCCC)N(CCCN(C)C)C(=O)CCCCCCCC [Compound 5] |
| 6.14 | CCCCC/C=C\C/C=C\CCCCCCCCC(CCCCCCCC/C=C\C/C=C\CCCCC)N(CCCN(C)C)C(=O)CCCCCCC/C=C\C/C=C\CCCCC [Compound 6] |
| 5.93 | CCCCC/C=C\C/C=C\CCCCCCCCC(CCCCCCCC/C=C\C/C=C\CCCCC)N(CCCN(C)C)C(=O)C(CC)CCCCC (stereo not drawn) [Compound 7] |
| 5.35 | CCCCC/C=C\C/C=C\CCCCCCCCC(CCCCCCCC/C=C\C/C=C\CCCCC)N(CCCN(C)C)C(=O)C(CCCCCC)CCCCCCCC (stereo not drawn) [Compound 8] |
| 6.27 | CCCCCCCCC(=O)N(CCCN(C)C)C(CCCCCCCCC(=O)OCC(CCCC)CCCCCC)CCCCCCCCC(=O)OCC(CCCC)CCCCCC (stereo not drawn) [Compound 9] |
| 6.13 | CCCCCCCCC(=O)N(CCCN(C)C)C(CCCCCCCCC(=O)OC(CCCCCC)CCCCCC)CCCCCCCCC(=O)OC(CCCCCC)CCCCCC [Compound 11] |
| 6.21 | CCCCCCCCC(CCCCCC)COC(=O)CCCCCCCCC(CCCCCCCCC(=O)OCC(CCCCCC)CCCCCCCC)N(CCCN(C)C)C(=O)CCCCCCC (stereo not drawn) [Compound 12] |
| 6.22 | CCCCCCCCC(=O)N(CCCN(C)C)C(CCCCCCCCC(=O)OCC(CCCCCC)CCCCCCCC)CCCCCCCCC(=O)OCC(CCCCCC)CCCCCCCC (stereo not drawn) [Compound 13] |

| SMILES | pKa |
| --- | --- |
| CCCCCCCC(=O)N(CCCN(C)C)C(CCCCCCCCC(=O)OC(CCCCCC)CCCCCC)CCCCCCCCC(=O)OC(CCCCCC)CCCCCC [Compound 10] | 6.16 |
